The values below come from ChEMBL document CHEMBL1212939, “Structure and relative potency of several karlotoxins from Karlodinium veneficum” (J Nat Prod, 2010).

A short description of the data set: Toxicity in human erythrocytes assessed as hemolytic activity after 24 hrs. The class given is cell-based, Erythrocyte.
As usually defined, the EC50 is the concentration that produces a half-maximal response. `C=C/C=C/CCCCCCCCCC/C=C/C(O)C(O)C1OC(C(O)C(O)C(=C)CCC(O)C2OC(CC(O)C(O)C(C)CCCC(O)C(O)C(O)C(C)CCC(O)C(O)C(C)CC(O)CCCC(O)CCCC(O)/C=C/CC(O)CO)C(O)C(O)C2O)CC(O)C1O` (stereo not given): the half-maximal effective concentration (EC50) at 24 h was 0.063 µM.
Consider `C=C/C=C/CCCCCCCCC/C=C/C(O)C(O)C1OC(C(O)C(O)C(=C)CCC(O)C2OC(CC(O)C(O)C(C)CCCC(O)C(O)C(O)C(C)CCC(O)C(O)C(C)CC(O)CCCC(O)CCCC(O)/C=C/CC(O)CO)C(O)C(O)C2O)CC(O)C1O` (stereo not given), for which the concentration for a half-maximal effect (EC50) at 24 h came to 0.2 µM.
With `C=C(CCC(O)C1OC(CC(O)C(O)C(C)CCCC(O)C(O)C(O)C(C)CCC(O)C(O)C(C)CC(O)CCCC(O)CCCC(O)/C=C/CC(O)CO)C(O)C(O)C1O)C(O)C(O)C1CC(O)C(O)C(C(O)C(O)/C=C/CCCCCCCCC/C=C/C=C/Cl)O1` (stereo not given), the EC50 at 24 h is 0.11 µM.
The result for `C=C(CCC(O)C1OC(CC(O)C(O)C(C)CCCC(O)C(O)C(O)C(C)CCC(O)C(O)C(C)CC(O)CCCC(O)CCCC(O)/C=C/CC(O)CO)C(O)C(O)C1O)C(O)C(O)C1CC(O)C(O)C(C(O)C(O)/C=C/CCCCCCCCCC/C=C/C=C/Cl)O1` (stereo not given) reads 0.056 µM.
Turning to `C=C/C=C/CCCCCCCCCC/C=C/C(O)C(O)C1OC(C(O)C(O)C(=C)CCC(O)C2OC(CC(O)C(O)C(C)CCCC(O)C(O)C(O)C(C)CCC(O)C(O)C(C)CC(O)CCCC(CCCC(O)/C=C/CC(O)CO)OS(=O)(=O)O)C(O)C(O)C2O)CC(O)C1O` (stereo not given), the EC50 at 24 h turned out to be 0.3 µM.
